# In patent US8153410B2, “Alternate morpheein forms of allosteric proteins as a target for the development of bioactive molecules” (Fox Chase Cancer Center, priority 2003, dated 2012):
# Where two headings read alike, the source gives them in different places.
# Assays:
# human PBGS [1] = target: T1, human PBGS (Homo sapiens, UniProt P13716); test: native PAGE gel shift of human PBGS; type: biochemical, H. sapiens
# T1 sequence (P13716 1-330): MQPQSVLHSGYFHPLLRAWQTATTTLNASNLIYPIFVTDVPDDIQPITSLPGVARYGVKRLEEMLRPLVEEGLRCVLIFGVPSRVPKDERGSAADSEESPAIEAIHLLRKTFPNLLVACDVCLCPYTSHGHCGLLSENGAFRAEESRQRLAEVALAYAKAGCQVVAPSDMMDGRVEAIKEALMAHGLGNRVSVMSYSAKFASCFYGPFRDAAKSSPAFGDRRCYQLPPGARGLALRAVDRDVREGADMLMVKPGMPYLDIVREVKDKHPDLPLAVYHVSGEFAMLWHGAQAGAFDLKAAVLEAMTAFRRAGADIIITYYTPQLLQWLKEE
# Method: (§1) FIG. 33 illustrates the species-specific effects of morphlock-1 on PBGS—FIG. 33(a) Dose-response curves showing morphlock-1 inhibition of pea PBGS at 1 μg/ml (∘) and human PBGS at 0.6 μg/ml (Δ) and 10 μg/ml (□). The proteins were incubated in the presence of 10× inhibitor for 30 minutes at 37° C. prior to assay. The concentrations on the X-axis represent the final concentration of morphlock-1 in the assay. FIG. 33(b). The IC50 for morphlock-1 is a function of pea PBGS concentration. IC50 values were determined as per part (a) using the noted concentrations of pea PBGS. (c) Native PAGE evaluation of the effect of morphlock-1 on the quaternary structure equilibria of PBGS (˜1 mg/ml) from D. melanogaster, P. aeruginosa, V. cholerae, and H. sapiens. Note that the charge/mass ratio is not the same for PBGS from different species.
# (§2) The putative morphlock-1 binding site is phylogenetically variable (see below). As such, morphlock-1 would not be expected to inhibit human PBGS. The effect of morphlock-1 on the activity of human PBGS was also determined at the midpoint of the protein concentration-dependent specific activity. […] To further establish the species-selectivity of morphlock-1, the gel shift assay was also carried out for PBGS from P. aeruginosa, and V. cholerae.
# P. aeruginosa PBGS = P. aeruginosa PBGS (Pseudomonas aeruginosa, UniProt Q59643); test: native PAGE gel shift of P. aeruginosa PBGS; type: biochemical; conditions: P. aeruginosa PBGS ~1 mg/ml
# Method: as §1, §2
# human PBGS [2] = target: T1, human PBGS; test: human PBGS activity assay with morphlock-1; type: biochemical
# Method: as §1, §2
# V. cholerae PBGS = test: native PAGE gel shift of V. cholerae PBGS; type: biochemical; conditions: V. cholerae PBGS ~1 mg/ml
# Method: as §1, §2
# pea PBGS = target: T2, pea PBGS (Pisum sativum, UniProt P30124, C394A); test: native PAGE gel shift of pea PBGS octamer/hexamer equilibrium; type: biochemical
# T2 construct: made in house
# Method: FIG. 32(a) The inhibitor morphlock-1 is illustrated as posed by Glide. The subunits A, B, and E are illustrated as ribbon diagram. Morphlock-1 is shown with carbon atoms and illustrated as ball and stick. FIG. 32(b) The chemical structure of morphlock-1. […] Pea PBGS was incubated with various concentrations of morphlock-1 (in a DMSO solution). Each concentration of morphlock-1 with a fixed amount of DMSO was incubated with protein for 30 minutes at 37° C. prior to resolution on 12.5% polyacrylamide native PhastGels. […] (d) The protein concentration dependence of pea PBGS specific activity is illustrated. PBGS (at varied concentrations) was incubated in the presence of DMSO (●) or 50 μM morphlock-1 in DMSO (∘) for 30 minutes at 37° C. prior to assay. The final concentration of morphlock-1 in the inhibited assay was 5 μM, and the concentration of PBGS in the inhibited and control assays ranged from 0.05-50 μg/mL (0.014-1.4 μM).
# FIG. 34(b) Hexameric pea PBGS (1 mg/mL, prepared by dialysis against low ionic strength) was incubated with DMSO (left) or 500 μM morphlock-1 (right) for 30 minutes at 37° C. ALA was added at the indicated concentrations, and the incubation was continued for 30 minutes prior to resolution on 12.5% polyacrylamide native PhastGels. […] Morphlock-1 concentrations are listed at the top of each lane. Protein samples for left-most gel were at 50 μg/ml (1.4 μM subunit) and 1 mM ALA; protein detection is by silver staining. Samples for the middle gel were also at 50 μg/ml (1.4 μM subunit) and 1 mM ALA; the gel was activity stained. Samples for the right-most gel were at 5 μg/ml (0.14 μM subunit) and 10 mM magnesium; protein detection is by Krypton Infrared staining.
# FIG. 41 illustrates native PAGE screening of compounds. Octameric PBGS (1 mg/mL) was incubated with DMSO or 2 mM of each compound for 30 minutes at 37° C. prior to resolution on 12.5% polyacrylamide native PhastGels. […] Each compound is identified by its box address. The compound B6 is morphlock-1.
# The interconversion of pea PBGS hexamer and octamer is a dynamic equilibrium that responds to protein concentration, substrate concentration, magnesium concentration, inhibitor concentration, and ionic strength.
# T2 sequence (P30124 69-398 C394A): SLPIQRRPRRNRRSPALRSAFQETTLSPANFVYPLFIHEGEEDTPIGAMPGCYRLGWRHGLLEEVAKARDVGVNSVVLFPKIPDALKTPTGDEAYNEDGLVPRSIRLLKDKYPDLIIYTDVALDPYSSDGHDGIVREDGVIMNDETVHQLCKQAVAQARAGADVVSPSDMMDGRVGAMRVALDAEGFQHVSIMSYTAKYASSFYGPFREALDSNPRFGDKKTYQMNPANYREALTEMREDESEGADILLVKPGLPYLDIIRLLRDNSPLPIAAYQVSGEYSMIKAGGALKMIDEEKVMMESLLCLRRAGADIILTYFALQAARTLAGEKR
# Chain of P. aeruginosa PBGS (Q59643 whole entry): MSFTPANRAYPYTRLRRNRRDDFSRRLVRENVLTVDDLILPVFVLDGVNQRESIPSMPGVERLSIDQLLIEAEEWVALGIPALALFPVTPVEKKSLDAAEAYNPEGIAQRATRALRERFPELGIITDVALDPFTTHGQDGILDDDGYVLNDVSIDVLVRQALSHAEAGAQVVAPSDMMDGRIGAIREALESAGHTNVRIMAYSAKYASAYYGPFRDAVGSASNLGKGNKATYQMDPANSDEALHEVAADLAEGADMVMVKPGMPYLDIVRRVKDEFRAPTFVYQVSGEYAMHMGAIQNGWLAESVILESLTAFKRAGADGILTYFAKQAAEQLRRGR
structure (smiles),measurement,setting,value
"O=C1Nc2ccc(S(=O)(=O)NCC(O)c3ccc([N+](=O)[O-])cc3)c3cccc1c23 (stereo not drawn) [morphlock-1, 2-oxo-1,2-dihydro-benzo(cd)indole-6-sulfonic acid[2-hydroxy-2-(4-nitro-phenyl)-ethyl]-amide]",effect on mobility of human PBGS on native PAGE gel,human PBGS [1],nor does it effect the mobility of human PBGS
same,"perturbation of the quaternary structure equilibrium, gel shift assay",P. aeruginosa PBGS,did not cause any perturbation of the quaternary structure equilibrium
same,effect on the protein concentration-dependent specific activity for human PBGS,human PBGS [2]; 5 μM morphlock-1,has no affect
same,inhibition of human PBGS activity,human PBGS [2]; midpoint of the protein concentration-dependent specific activity,does not inhibit human PBGS
same,"perturbation of the quaternary structure equilibrium, gel shift assay",V. cholerae PBGS,did not cause any perturbation of the quaternary structure equilibrium
same,IC50,"pea PBGS; 5 μg/ml pea PBGS and 10 mM magnesium, Krypton IR detection, read-out: apparent IC50, native PAGE",1 to 3 µM
same,IC50,"pea PBGS; 50 μg/ml (1.4 μM subunit) pea PBGS and 1 mM ALA, silver stain, read-out: apparent IC50, native PAGE",~100 µM
same,native PAGE screening: shift of oligomeric equilibrium,"pea PBGS; PBGS 1 mg/mL, 2 mM compound, 30 minutes at 37° C.",dramatically shift the oligomeric equilibrium to the hexamer
same,hexamer converted to octamer by ALA in the presence of morphlock-1,"pea PBGS; hexameric pea PBGS 1 mg/mL, 2 mM morphlock-1, 5 mM ALA",~50%
same,IC50,"pea PBGS; non-equilibrium conditions, 1 mg/ml (~28 μM subunits) pea PBGS, read-out: observed IC50 in native PAGE analyses",~500 µM
same,"effect on pea PBGS morpheein equilibrium, native PAGE","pea PBGS; pea PBGS 1 mg/mL, various concentrations of morphlock-1, 30 minutes at 37° C.",draws the pea PBGS morpheein equilibrium entirely to the hexamer in a dose dependent fashion
same,Coomassie and activity stained native PAGE: binding to hexameric assembly,"pea PBGS; pea PBGS 1 mg/ml, morphlock-1 at 2 mM",prevents the substrate mediated conversion of hexamer to octamer
